Reference: paper PMC10323112 (Cancer Science, 2023)

Tests used:
[1] = 30 mg/kg
in vitro [2] = conditions: CD-1, mouse, plasma
in vitro [3] = type: in vitro ADME; conditions: CD-1, mouse, brain homogenate
in vivo = conditions: female, Balbc nude, mouse, 30 mg/kg
in vitro [4] = conditions: human, Caco-2
NCI-H358 (KRAS^G12C) = experiment: Proliferation assay; type: cell-based, human; conditions: NCI-H358 (Figure S2D)
[5] = tested on: p-AKT in NCI-H1993 (KRAS^WT, PIK3CA^WT) cells; experiment: Basal p-AKT assay; type: cell-based, human; conditions: NCI‐H1993 (KRAS^WT, PIK3CA^WT) cell line
[6] = tested on: p-AKT in NCI-H358 (KRAS^G12C, PIK3CA^WT) cells; experiment: Basal p-AKT assay; type: cell-based, human; conditions: NCI‐H358 (KRAS^G12C, PIK3CA^WT) cell line
NCI-H1993 (KRAS^WT) = experiment: Proliferation assay; type: cell-based, human; conditions: NCI-H1993 (Figure S2D)

Row | Unbound brain AUC ([1]; AUCbrain × fu,brain) [µM·h] | Unbound plasma AUC ([1]; AUCplasma × fu,plasma) [µM·h] | fraction unbound at 5 h, 1 μM (in vitro [2]) | fraction unbound at 5 h, 1 μM (in vitro [3]) | AUC (in vivo) [µM·h] | Kp uu (in vivo) | Papp A→B at 120 min, 10 μM (in vitro [4]) [×10⁻⁶ cm/s] | SMILES | inhibitory effect on cell proliferation (NCI-H358 (KRAS^G12C)) | effect on p‐AKT level [5] | effect on p‐AKT level [6] | inhibitory effect on cell proliferation (NCI-H1993 (KRAS^WT))
1 | 0.0009 | 0.089 | 0.002 | 0.001 | 44.3 | 0.01 | 0.8 | C=C(F)C(=O)N1CCN(c2nc(OC[C@@H]3CCCN3C)nc3c2CCN(c2cccc4cccc(Cl)c24)C3)C[C@@H]1CC#N [Adagrasib, adagrasib] | – | – | – | –
2 | – | – | – | – | – | – | – | C[C@H](Nc1ccc2c(c1)OCCn1cc(N3C(=O)OC[C@H]3C(F)F)nc1-2)C(N)=O [GDC-0077] | very weak inhibitory effect | reduced | reduced | very weak inhibitory effect
